Measured values from patent US20220105096A1, “INHIBITORS OF HUMAN IMMUNODEFICIENCY VIRUS REPLICATION” (ViiV HEALTHCARE UK (NO.5) LIMITED, priority 2019, published 2022).

Columns and labels:
[1] = Metabolism in rat liver microsomes; assay type: in vitro ADME; settings: pH 7.4, 1 μM compound, 1 mg/mL microsomes, NADPH, 37° C., read-out: Rat liver microsome T1/2
Description: (§1) Liver microsomes from human, rat dog and monkey were thawed and diluted to a final concentration of 1 mg/mL in 100 mM potassium phosphate buffer (pH 7.4). Test compounds and controls were prepared at 100× final concentration of 1 μM in 1:1 acetonitrile:water (v/v) and aliquoted into microsomal mixture. The mixture was preincubated at 37° C. in a shaking water bath for 10 minutes. The incubations were performed in duplicate. Three controls were included in the incubations; warfarin, phenacetin, and verapamil. After the preincubation, the reaction was initiated with NADPH at a final concentration of 1 mM. At 0, 5, 15, 30, 45 and 60 minutes, 25 μL of sample was removed and quenched with 300 μL of acetonitrile containing internal standard (Telmisartan). The samples were vortexed for 5 minutes at 1200 rpm and then centrifuged at 4000 rpm for 10 min. A 100 μL aliquot of supernatant was diluted three-fold with water and injected on an Exion LC 4500 Triple Quad LC-MS/MS system. Results were reported as a percentage of parent remaining and was calculated from peak area ratios of test compound remaining after at each time point and compared to time zero incubation.

[2] = Metabolism in dog liver microsomes; assay type: in vitro ADME
Description: as §1

[3] = Pharmacokinetic parameters in vivo, dog; design: species or system Beagle Dogs
Description: (§2) PK was investigated in male CD1 mice, Wistar Han Rats, Cynomolgus monkeys, and Beagle Dogs. Two groups of animals (N=3 per group) received test compound either as an intravenous (IV) dose (1 mg/kg) or by oral gavage (5 mg/kg solution and suspension). Drug was formulated in 90% PEG 400, 10% ethanol for IV administration and in 90% PEG400, 5% ethanol for PO administration. Blood samples were collected at 0.167, 0.25, 0.5, 0.75, 1, 2, 3, 5, 7, 24, 48, 72 and 96 h post dose for IV; 0.25, 0.5, 0.75, 1, 2, 3, 5, 7, 24, 48, 72 and 96 h post dose for oral. Blood samples were collected into K3EDTA tubes and centrifuged at 1500 to 2000×g to obtain plasma. Plasma samples were stored at −20° C. until analysis by LC-MS/MS. All […] samples were injected on an Exion LC 4500 Triple Quad™ LC-MS/MS system. The analytical column used was a Phenomenex C18 (C18, 4.6 mm×50 mm, 5 μm) maintained at room temperature. Mobile Phase A consisted of 0.1% (v/v) formic acid in MilliQ water. Mobile Phase B consisted of 100% methanol. The flow rate was 1 mL/min. […] All LC-MS/MS analysis parameters are captured electronically in the raw data files. The PK parameters were obtained by non-compartmental analysis of plasma concentration vs time data (Phoenix WinNonlin v8). The peak concentration (Cmax) and time for Cmax (Tmax) were recorded directly from experimental observations. The area under the curve from time zero to the last sampling time [AUC0-T] and the area under the curve from time zero to infinity [AUCINF] were calculated using a combination of linear and log trapezoidal summations. The total plasma clearance (CLTp), steady-state volume of distribution (Vss), apparent elimination half-life (T-HALF), and mean residence time (MRT) were estimated after IV administration. Estimations of AUC and T-HALF were made using a minimum of three timepoints with quantifiable concentrations. The absolute oral bioavailability (F) was estimated as the ratio of dose-normalized AUC values following oral and IV doses.

[4] = Cytotoxicity in uninfected MT2 cells, XTT colorimetric assay; assay type: cell-based; settings: human, day 4, XTT, read-out: cytotoxic CC50
Description: Compound cytotoxicity and the corresponding CC50 values were determined using the same protocol as described in the antiviral assay except that uninfected cells were used. Cytotoxicity was assessed on day 4 in uninfected MT2 cells by using an XTT (2,3-bis[2-Methoxy-4-nitro-5-sulfophenyl]-2H-tetrazolium-5-carboxanilide inner salt)-based colorimetric assay (Sigma-Aldrich, St Louis, Mo.).

[5] = system: primary human hepatocytes; experiment: Cytotoxicity assessed in parallel in the CYP induction assay; assay type: cell-based; settings: concentrations tested up to 30 μM, 48 hours
Description: Compounds were tested in a CYP induction assay using inducible cryopreserved human primary hepatocytes from three donors to determine the potential to cause induction (as measured by an increase in mRNA transcription) of CYP2B6. Test compounds (0.12 to 30 μM final concentration) were incubated for 48 hours with primary human hepatocytes naturally expressing all nuclear receptors involved in regulation of expression levels of various CYP enzymes. Fresh solutions of test compounds and controls were diluted in assay media and added every 24 hours for two consecutive days, with a final DMSO concentration of 0.1%. At the end of the incubation, the integrity of cell monolayers, cell density and viability were evaluated to assess cytotoxicity effects. […] It was then used in reverse transcription polymerase chain reactions (RT-PCR) to quantify the amount of specific mRNA species encoding human CYP3A4, CYP2B6, and CYP1A2 genes.
The induction potential of test compounds and controls was compared to known CYP2B6 inducer Phenobarbital (1000 μM). The results of this assay are expressed as fold induction. Fold induction was calculated as a ratio of mRNA level in cells treated with test compound over that in cells treated with DMSO (solvent control) alone, the basal mRNA level, and thus represents the induction potential of the test compound. […]

[6] = Pharmacokinetic parameters in vivo, rat; design: species or system Wistar Han Rats; settings: Wistar Han, plasma
Description: as §2

CYP2B6 = experiment: Cytochrome P450 (CYP2B6) induction in cryopreserved human hepatocytes; assay type: cell-based; settings: hepatocytes from three individual donors, 0.12 to 30 μM, 48 hours
Description: Following the guidance of the FDA (“In Vitro Metabolism- and Transporter-Mediated Drug-Drug Interaction Studies Guidance for Industry”), the potential of Example 1 and Example 60.2 to induce CYP2B6 expression was tested using hepatocytes from the same three individual donors (rather than pooled donors), and changes in enzyme mRNA levels were evaluated using the “fold-change method”. In this test a fold-change in mRNA levels less than 2-fold is considered a negative finding, while a change ≥2-fold is considered a positive finding.
Compounds were tested in a CYP induction assay using inducible cryopreserved human primary hepatocytes from three donors to determine the potential to cause induction (as measured by an increase in mRNA transcription) of CYP2B6. […] At the end of the incubation, the integrity of cell monolayers, cell density and viability were evaluated to assess cytotoxicity effects. […] It was then used in reverse transcription polymerase chain reactions (RT-PCR) to quantify the amount of specific mRNA species encoding human CYP3A4, CYP2B6, and CYP1A2 genes.
The induction potential of test compounds and controls was compared to known CYP2B6 inducer Phenobarbital (1000 μM). The results of this assay are expressed as fold induction. […] The cytotoxicity was also assessed in parallel to avoid false positive CYP induction results due to cytotoxicity. […]

[7] = Beagle, plasma, Dog, IV 1 mg/kg

Compound: Cn1nc(NS(C)(=O)=O)c2c(Cl)ccc(-n3c([C@H](Cc4cc(F)cc(F)c4)NC(=O)Cn4nc(C(F)F)c5c4C(F)(F)[C@@H]4C[C@H]54)nc4nc(OCCC(C)(F)F)ccc4c3=O)c21 (atropisomer, axis not shown; (P)) [Example 1, N—((S)-1-((3P)-3-(4-chloro-1-methyl-3-(methylsulfonamido)-1H-indazol-7-yl)-7-(3,3-difluorobutoxy)-4-oxo-3,4-dihydropyrido[2,3-d]pyrimidin-2-yl)-2-(3,5-difluorophenyl)ethyl)-2-((3bS,4aR)-3-(difluoromethyl)-5,5-difluoro-3b,4,4a,5-tetrahydro-1H-cyclopropa[3,4]cyclopenta[1,2-c]pyrazol-1-yl)acetamide]
- half-life at 1 μM [1]: > 2 h
- stability in dog liver microsomes relative to Example 60.2 ([2]; Example 1 versus Example 60.2): at least seven times more stable
- half-life at 1 μM ([2]; dog, liver microsomes, pH 7.4, 1 μM compound, 1 mg/mL microsomes, NADPH, 37° C., read-out: Dog liver microsome T1/2): > 2 h
- clearance [3, 7]: 1.16 mL/min/kg
- half-life [3, 7]: 12.4 h
- Vd ([3]; Beagle, plasma, Dog, IV 1 mg/kg, read-out: Vss): 0.88 L/kg
- bioavailability ([3]; Beagle, plasma, Dog, oral gavage 5 mg/kg solution vs IV 1 mg/kg): 34.6%
- half-life in circulation higher than Example 60.2 ([3]; dog): five-fold
- clearance improved relative to Example 60.2 ([3]; dog, IV): seven-fold
- CC50 at 4 days [4]: > 10 µM
- cytotoxicity in CYP induction assay [5]: No cytotoxicity was observed
- clearance ([6]; IV 1 mg/kg): 3.6 mL/min/kg
- half-life ([6]; IV 1 mg/kg): 10.2 h
- Vd ([6]; IV 1 mg/kg, read-out: Vss): 1.76 L/kg
- bioavailability ([6]; oral gavage 5 mg/kg solution vs IV 1 mg/kg): 57.5%
- CYP2B6 induction finding (mRNA fold-change method) (CYP2B6): negative finding (a fold-change in mRNA levels less than 2-fold is considered a negative finding)
